Assay results reported in ChEMBL document CHEMBL1201862, “PubChem BioAssay data set” (2004).
Calls of active or inactive are those of the source.

Legend:
[1] = HEK-293T viability loss after treatment – luminescence, T-cell screen hits, cytotoxicity control for TCR NF-kB inhibitor project, dose response (AID 489026); assay type: functional, cell-based;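 also: cells exposed to compound about 14 hours before the viability readout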
[2] = alpha-synuclein stem-loop luciferase translation blockers – H4 neuroglioma cells, luminescence, confirmation (AID 1988); assay type: functional, cell-based
[3] = luciferase reporter signal reduction – luminescence, H4-C neuroglioblastoma cells, dose response (AID 2458); assay type: functional, cell-based;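 also: H4 neuroglioblastoma cells stably carrying a luciferase reporter gene fusion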
[4] = luciferase reporter signal suppression in cells – H4 neuroglioma cells, luminescence, dose response (AID 1990); assay type: functional, cell-based
[5] = cells; assay type: functional, cell-based
[6] = alpha-synuclein stem-loop translation blockers – luminescence, H4 neuroglioblastoma cells, dose confirmation, confirmation (AID 2454); assay type: functional, cell-based;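 also: H4 neuroglioblastoma cells carrying an alpha-synuclein 5'UTR luciferase reporter; potency for inhibition of the luciferase signal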
[7] = Luminescence Cell-Based Dose Response HTS to Identify Inhibitors of 5'UTR Stem-Loop Driven Prion Protein mRNA Translation in H4 Neuroglioblastoma Cells. [Related pubchem assays: 1827 (Project Summary), 1813 (Primary HTS)]; assay type: functional
[8] = target: Cytochrome P450 2C9 (Homo sapiens, UniProt P11712); conditions: Potency
[9] = target: Procathepsin L (Homo sapiens, UniProt P07711)
[10] = target: T1, Aspartyl aminopeptidase (Plasmodium falciparum 3D7, UniProt Q8I2J3)
T1 sequence (Q8I2J3 whole entry): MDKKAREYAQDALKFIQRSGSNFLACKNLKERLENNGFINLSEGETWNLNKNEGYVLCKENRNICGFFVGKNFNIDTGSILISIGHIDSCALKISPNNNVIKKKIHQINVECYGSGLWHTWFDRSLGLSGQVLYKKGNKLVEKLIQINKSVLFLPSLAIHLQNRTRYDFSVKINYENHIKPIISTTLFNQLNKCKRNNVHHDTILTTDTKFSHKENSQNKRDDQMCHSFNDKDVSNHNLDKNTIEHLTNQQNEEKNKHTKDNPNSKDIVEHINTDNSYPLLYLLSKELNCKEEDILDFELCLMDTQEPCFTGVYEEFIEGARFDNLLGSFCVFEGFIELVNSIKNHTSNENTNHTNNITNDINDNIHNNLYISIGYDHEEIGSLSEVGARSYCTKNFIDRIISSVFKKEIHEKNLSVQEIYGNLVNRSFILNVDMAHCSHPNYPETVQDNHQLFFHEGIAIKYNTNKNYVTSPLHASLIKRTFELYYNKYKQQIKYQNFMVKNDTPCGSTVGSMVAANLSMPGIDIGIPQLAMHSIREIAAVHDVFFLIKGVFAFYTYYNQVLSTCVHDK

[11] = target: Lysosomal acid glucosylceramidase (Homo sapiens, UniProt P04062); test: Dose response cell-based high throughput screening assay to identify enhancers of beta-glucosidase activity. [Related pubchem assays: 784 ]; assay type: functional
[12] = target: T2, Histone-lysine N-methyltransferase NSD2 (Homo sapiens, UniProt O96028); assay type: biochemical
T2 sequence (O96028 whole entry): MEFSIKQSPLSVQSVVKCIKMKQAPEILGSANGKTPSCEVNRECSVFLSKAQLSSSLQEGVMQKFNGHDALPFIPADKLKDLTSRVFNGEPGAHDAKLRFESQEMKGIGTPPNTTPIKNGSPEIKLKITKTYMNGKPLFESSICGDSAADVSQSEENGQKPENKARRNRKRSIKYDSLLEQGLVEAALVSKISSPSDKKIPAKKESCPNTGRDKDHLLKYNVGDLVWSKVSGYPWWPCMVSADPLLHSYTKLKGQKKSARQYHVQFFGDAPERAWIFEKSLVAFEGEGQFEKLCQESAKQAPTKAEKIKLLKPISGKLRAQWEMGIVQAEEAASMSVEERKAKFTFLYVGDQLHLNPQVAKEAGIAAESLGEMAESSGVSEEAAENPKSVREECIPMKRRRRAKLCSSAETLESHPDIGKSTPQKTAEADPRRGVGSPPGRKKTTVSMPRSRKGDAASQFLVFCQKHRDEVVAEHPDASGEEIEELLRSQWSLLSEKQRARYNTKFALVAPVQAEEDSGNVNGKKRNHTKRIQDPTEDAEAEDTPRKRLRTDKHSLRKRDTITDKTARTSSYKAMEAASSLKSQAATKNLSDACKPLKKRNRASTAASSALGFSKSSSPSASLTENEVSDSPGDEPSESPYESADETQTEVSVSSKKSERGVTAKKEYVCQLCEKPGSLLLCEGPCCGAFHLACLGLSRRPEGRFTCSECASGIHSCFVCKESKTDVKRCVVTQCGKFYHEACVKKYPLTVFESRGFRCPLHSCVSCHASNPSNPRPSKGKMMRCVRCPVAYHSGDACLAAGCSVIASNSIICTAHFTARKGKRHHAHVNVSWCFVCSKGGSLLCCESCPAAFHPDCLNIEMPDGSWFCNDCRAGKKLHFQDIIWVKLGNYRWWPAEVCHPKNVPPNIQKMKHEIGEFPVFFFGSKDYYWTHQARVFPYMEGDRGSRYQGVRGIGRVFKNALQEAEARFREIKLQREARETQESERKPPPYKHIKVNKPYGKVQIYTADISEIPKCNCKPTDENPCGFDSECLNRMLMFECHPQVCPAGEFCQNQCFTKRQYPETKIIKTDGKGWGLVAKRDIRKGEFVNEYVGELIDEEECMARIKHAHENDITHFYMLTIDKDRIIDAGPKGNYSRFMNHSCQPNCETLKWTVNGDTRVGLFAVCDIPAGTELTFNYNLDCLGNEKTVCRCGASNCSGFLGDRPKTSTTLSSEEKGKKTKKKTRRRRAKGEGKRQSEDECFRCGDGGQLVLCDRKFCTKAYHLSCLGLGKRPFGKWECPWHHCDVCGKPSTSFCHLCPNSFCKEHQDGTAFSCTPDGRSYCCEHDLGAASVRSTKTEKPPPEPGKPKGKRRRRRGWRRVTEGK

[13] = Counterscreen for IDE inhibitors: Luminescence-based cell-based high throughput dose response assay to identify compounds that are cytotoxic to HEK cells. [Related pubchem assays: 434962 (Primary screen (IDE inhibitors in singlicate)), 449730 (Counterscreen (Cytotoxicity in triplicate)), 435028 (Confirmation (IDE inhibitors in triplicate)) …; assay type: functional; conditions: HEK293
[14] = target: Large T antigen (Simian virus 40, UniProt P03070); assay type: functional, Betapolyomavirus macacae;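 also: Confirmatory-stage PubChem screen for compounds that inhibit SV40 T antigen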
[15] = target: T3, Insulin-degrading enzyme (Homo sapiens, UniProt P14735); test: Dose Response: Fluorescence polarization-based cell-based high throughput dose response assay for inhibitors of insulin-degrading enzyme (IDE). [Related pubchem assays: 434962 (Primary screen (IDE inhibitors in singlicate)), 449730 (Counterscreen (Cytotoxicity in triplicate)), 435028 (Confirmation (IDE inhibitors in triplicate)), 434984 (Summary …; assay type: functional
T3 sequence (P14735 whole entry): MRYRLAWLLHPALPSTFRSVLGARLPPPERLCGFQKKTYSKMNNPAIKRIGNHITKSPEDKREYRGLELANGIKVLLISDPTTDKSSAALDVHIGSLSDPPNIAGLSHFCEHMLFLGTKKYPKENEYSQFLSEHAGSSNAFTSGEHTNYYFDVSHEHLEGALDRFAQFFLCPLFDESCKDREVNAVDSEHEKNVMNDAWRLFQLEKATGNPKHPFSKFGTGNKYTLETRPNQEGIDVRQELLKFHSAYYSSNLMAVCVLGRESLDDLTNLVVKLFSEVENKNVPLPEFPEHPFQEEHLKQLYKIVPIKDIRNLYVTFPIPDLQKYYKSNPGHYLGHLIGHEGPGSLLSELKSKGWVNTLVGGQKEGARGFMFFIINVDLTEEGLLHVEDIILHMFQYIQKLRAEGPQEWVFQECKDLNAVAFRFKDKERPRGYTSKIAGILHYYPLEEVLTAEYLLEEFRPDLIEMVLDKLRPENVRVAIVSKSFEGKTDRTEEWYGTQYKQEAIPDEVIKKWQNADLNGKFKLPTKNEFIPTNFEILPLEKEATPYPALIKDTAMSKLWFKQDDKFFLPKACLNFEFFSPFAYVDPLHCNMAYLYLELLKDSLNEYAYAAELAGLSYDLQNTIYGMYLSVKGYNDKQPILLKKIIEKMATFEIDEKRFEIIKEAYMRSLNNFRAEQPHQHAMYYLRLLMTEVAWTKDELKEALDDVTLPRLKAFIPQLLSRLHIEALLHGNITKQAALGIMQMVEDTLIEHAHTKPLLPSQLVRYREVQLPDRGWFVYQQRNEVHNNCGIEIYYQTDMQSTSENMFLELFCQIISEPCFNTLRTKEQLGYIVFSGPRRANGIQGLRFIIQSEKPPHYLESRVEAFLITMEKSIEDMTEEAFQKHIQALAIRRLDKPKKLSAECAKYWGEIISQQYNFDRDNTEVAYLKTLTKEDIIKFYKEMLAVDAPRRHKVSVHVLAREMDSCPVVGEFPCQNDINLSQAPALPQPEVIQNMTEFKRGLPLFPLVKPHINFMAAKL

[16] = target: T4, Calpain-2 catalytic subunit (Sus scrofa, UniProt P43367); test: m-calpain protease blockers, concentration series – biochemical, fluorogenic peptide substrate, dose response (AID 1420); assay type: functional
T4 sequence (P43367 whole entry): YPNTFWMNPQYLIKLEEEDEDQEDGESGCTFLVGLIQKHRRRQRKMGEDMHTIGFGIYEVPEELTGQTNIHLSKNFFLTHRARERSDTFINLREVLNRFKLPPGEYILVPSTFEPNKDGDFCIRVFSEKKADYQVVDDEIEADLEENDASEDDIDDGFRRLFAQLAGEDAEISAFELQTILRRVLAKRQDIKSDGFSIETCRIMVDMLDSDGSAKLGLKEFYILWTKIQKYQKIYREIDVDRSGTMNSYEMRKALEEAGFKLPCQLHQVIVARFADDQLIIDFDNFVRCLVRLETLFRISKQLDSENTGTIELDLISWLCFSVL

[17] = target: T5, Eukaryotic translation initiation factor 2-alpha kinase 3 (Homo sapiens, UniProt Q9NZJ5); test: Dose response cell-based high-throughput screening assay to measure PERK inhibition. [Related pubchem assays: 1416 ]; assay type: functional
T5 sequence (Q9NZJ5 whole entry): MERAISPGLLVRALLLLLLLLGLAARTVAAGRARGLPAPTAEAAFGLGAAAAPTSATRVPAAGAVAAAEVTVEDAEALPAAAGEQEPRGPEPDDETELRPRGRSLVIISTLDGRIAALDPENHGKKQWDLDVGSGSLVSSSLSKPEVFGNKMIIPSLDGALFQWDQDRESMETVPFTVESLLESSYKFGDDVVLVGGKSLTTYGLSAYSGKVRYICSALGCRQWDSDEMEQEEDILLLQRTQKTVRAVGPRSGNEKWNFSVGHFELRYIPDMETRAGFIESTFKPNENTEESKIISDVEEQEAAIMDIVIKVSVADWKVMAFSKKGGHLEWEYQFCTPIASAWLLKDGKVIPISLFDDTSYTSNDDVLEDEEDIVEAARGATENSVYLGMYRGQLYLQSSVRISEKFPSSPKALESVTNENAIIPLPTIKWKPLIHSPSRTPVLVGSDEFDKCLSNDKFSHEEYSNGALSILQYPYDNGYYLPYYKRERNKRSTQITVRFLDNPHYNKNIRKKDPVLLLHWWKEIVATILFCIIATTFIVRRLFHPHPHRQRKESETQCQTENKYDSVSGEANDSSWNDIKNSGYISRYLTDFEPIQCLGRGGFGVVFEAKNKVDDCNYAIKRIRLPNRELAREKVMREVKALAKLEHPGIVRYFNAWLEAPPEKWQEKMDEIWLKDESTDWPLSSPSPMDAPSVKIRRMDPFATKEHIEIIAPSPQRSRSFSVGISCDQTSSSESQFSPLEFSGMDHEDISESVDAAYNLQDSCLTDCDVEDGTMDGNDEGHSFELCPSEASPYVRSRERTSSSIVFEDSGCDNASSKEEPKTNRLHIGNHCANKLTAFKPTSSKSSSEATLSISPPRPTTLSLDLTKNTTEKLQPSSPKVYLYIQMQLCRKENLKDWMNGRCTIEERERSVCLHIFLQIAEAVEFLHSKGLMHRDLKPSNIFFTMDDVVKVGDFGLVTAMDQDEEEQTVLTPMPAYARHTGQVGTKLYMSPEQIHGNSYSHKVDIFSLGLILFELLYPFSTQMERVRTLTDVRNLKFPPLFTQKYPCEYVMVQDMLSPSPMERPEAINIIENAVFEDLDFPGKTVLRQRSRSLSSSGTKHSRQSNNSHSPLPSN

[18] = target: T5, Eukaryotic translation initiation factor 2-alpha kinase 3; test: Counterscreen assay for PERK inhibitors: Dose response cell-based high throughput screening assay to measure inhibition of PERK at 6 hours. [Related pubchem assays: 1522, 1416 ]; assay type: functional

Lysosomal acid glucosylceramidase, sequence (P04062 whole entry): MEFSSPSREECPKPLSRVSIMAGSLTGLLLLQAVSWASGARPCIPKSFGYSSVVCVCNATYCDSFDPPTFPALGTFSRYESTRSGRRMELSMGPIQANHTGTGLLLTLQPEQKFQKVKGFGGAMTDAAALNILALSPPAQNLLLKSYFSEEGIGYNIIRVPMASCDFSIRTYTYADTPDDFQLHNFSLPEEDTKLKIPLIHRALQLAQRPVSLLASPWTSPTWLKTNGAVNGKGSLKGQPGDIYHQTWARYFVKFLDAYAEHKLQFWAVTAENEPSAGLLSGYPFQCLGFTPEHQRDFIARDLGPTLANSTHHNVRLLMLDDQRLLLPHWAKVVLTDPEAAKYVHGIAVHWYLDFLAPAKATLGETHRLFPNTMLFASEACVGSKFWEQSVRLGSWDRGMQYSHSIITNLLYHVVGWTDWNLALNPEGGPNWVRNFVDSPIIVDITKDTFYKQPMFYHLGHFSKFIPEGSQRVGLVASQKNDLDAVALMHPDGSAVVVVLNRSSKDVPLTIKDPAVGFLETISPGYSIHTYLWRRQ
Procathepsin L, sequence (P07711 whole entry): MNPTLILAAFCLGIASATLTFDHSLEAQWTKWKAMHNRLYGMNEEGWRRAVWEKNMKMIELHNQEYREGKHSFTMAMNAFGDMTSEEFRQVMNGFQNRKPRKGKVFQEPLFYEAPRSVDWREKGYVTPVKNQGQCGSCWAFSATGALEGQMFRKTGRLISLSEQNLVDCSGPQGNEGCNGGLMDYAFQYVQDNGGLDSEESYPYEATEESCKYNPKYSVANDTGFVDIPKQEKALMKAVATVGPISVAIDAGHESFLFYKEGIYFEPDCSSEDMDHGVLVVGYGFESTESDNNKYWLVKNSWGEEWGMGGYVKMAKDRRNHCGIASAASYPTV
Cytochrome P450 2C9, sequence (P11712 whole entry): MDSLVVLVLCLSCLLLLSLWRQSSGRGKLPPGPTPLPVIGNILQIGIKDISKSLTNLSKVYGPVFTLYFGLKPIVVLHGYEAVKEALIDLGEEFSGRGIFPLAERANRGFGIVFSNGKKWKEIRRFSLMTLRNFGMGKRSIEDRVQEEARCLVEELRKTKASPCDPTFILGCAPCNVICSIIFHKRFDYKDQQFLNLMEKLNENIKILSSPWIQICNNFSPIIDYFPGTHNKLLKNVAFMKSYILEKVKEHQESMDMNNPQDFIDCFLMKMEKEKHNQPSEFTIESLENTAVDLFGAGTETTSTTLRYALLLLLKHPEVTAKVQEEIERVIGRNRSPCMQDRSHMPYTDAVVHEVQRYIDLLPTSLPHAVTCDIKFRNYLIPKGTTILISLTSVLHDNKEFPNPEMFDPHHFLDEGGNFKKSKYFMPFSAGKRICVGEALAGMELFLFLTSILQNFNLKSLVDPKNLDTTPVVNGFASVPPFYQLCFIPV
Large T antigen, sequence (P03070 whole entry): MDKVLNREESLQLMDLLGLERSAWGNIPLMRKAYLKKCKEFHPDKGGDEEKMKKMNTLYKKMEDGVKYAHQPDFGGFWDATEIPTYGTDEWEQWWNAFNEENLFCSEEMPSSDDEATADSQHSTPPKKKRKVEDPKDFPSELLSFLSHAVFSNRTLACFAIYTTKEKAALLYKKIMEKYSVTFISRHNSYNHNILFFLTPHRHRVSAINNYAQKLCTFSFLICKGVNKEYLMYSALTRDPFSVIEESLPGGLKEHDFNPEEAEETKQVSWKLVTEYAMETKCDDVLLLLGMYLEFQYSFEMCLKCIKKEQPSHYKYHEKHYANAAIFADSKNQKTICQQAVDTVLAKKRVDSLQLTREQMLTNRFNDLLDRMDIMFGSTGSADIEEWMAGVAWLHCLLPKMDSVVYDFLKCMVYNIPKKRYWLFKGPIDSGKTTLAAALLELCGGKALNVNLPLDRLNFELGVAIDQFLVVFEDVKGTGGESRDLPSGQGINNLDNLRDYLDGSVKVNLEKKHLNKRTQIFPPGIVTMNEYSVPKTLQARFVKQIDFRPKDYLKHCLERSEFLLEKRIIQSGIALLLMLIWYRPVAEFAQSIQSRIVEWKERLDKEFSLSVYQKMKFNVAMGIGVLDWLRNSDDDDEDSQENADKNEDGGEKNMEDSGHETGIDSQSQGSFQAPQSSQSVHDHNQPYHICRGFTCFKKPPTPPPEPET

CC1=C([N+](=O)[O-])C(c2ccccc2)C2=C(O)c3ccccc3C2=N1 (configuration not stated)
IC50 [1]: 58.8 µM (inactive)
EC50 [2]: < 0.1 µM (active)
EC50 [3]: > 12 µM (not active)
EC50 [4]: 7.36 µM (active)
EC50 [5]: > 12 µM (not active)
EC50 [6]: 4.09 µM (active)
EC50 [7]: 4.95 µM (active)

CC(C)C[C@@H](CC(=O)N[C@@H](CCCN)CC(=O)N[C@@H]1CCNC[C@H]1C(=O)N[C@H](CC(=O)N[C@@H](CCC(=O)O)CC(=O)O)Cc1c[nH]c2ccccc12)NC(=O)[C@@H]1CCCC[C@H]1N
AC50 [8]: 31.6 µM (inconclusive)

O=C1/C(=C/Nn2cnnc2)c2ccccc2C(=O)N1c1ccccc1
IC50 [9]: > 59.6 µM (not active)
IC50 [10]: 1.86 µM (active)

CCOC(=O)N1CCN(C(=O)c2ccc3c(=O)n(Cc4ccccc4)c(=S)[nH]c3c2)CC1
EC50 [11]: > 10 µM (not active)

Cc1cccn2c(=O)c3cc(C(=O)NCCCn4ccnc4)n(C)c3nc12
EC50 [11]: > 10 µM (not active)

CN1CCC/C1=C/C=C1\SC(=S)NC1=O
AC50 [12]: > 20 µM (inactive)
IC50 [13]: > 55.6 µM (not active)
IC50 [14]: 30.2 µM (active)
IC50 [15]: 8.16 µM (active)
IC50 [16]: 13.4 µM (not active)

COC(=O)CN(n1cnnc1)S(=O)(=O)c1ccccc1Cl
IC50 [9]: > 59.6 µM (not active)
IC50 [10]: 0.381 µM (active)

C=C(C)C(O)/C=C/c1ccc(C)cc1 (configuration not stated)
AC50 [8]: 3.16 µM (inconclusive)

Cc1ccc2cc(/C=N/Nc3nc4ccccc4[nH]3)c(Cl)nc2c1
EC50 [17]: > 55.7 µM (not active)
EC50 [18]: > 55.7 µM (not active)
